Source: ChEMBL document CHEMBL5375990, “Optimization of Pharmacokinetic and In Vitro Safety Profile of a Series of Pyridine Diamide Indirect AMPK Activators” (J Med Chem, 2023)
The source made the active and inactive calls. The calls are words filed in the database; no cut-off is given here.

Assays:
[1] = biological target: Voltage-gated inwardly rectifying potassium channel KCNH2 (Homo sapiens, UniProt Q12809); experiment: Inhibition of hERG; format: toxicity
[2] = Activation of AMPK in human HepG2 cells incubated for 2 hrs; format: cell-based; settings: HepG2, 2 h
[3] = biological target: 5'-AMP-activated protein kinase; experiment: Activation of AMPK in mouse C2C12 cells incubated for 2 hrs; format: cell-based
HepG2 = experiment: Inhibition of mitochondrial function in human HepG2 cells assessed as reduction in ATP production; format: functional, cell-based
Cytochrome P450 3A4 [4] = biological target: T1, Cytochrome P450 3A4 (Homo sapiens, UniProt P08684); experiment: Inhibition of CYP3A4 (unknown origin); format: ADME
Cytochrome P450 3A4 [5] = biological target: T1, Cytochrome P450 3A4; experiment: Inhibition of CYP3A4 (unknown origin) in presence of NADPH; format: ADME
[6] = Clearance in rat; format: ADME; settings: in vivo
[7] = Dissociation constant, pKa of compound; format: physicochemical
hERG (KCNH2) = hERG (KCNH2) (Homo sapiens, UniProt Q12809); experiment: Inhibition of hERG at 10 uM relative to control; format: toxicity
[8] = Microsomal stability in rat liver microsome assessed as half life; format: ADME; settings: liver microsomes
[9] = Microsomal stability in human liver microsome assessed as half life; format: ADME, microsomes; settings: for half-life: liver microsomes
A549 = experiment: Cytotoxicity against human A549 cells assessed as reduction in cell growth; format: functional, cell-based
NCI-H1299 = experiment: Cytotoxicity against human NCI-H1299 cells assessed as reduction in cell growth; format: functional, cell-based
[10] = Half life in rat at 5 mg/kg, po or 1 mg/kg, iv measured upto 10 hrs; format: ADME, organism-based; settings: in vivo
[11] = Volume of distribution at steady state in rat at 5 mg/kg, po or 1 mg/kg, iv measured upto 10 hrs; format: ADME, organism-based; settings: in vivo
[12] = AUC in rat at 5 mg/kg, po measured upto 10 hrs; format: ADME, organism-based; design: time < 10 hrs, dose 5 mg/kg, route po; settings: in vivo
[13] = Oral bioavailability in rat at 5 mg/kg measured upto 10 hrs; format: ADME, organism-based; settings: in vivo
[14] = Drug concentration in C57BL/6J mouse plasma at 10 mg/kg, po measured at 30 mins; format: ADME, organism-based
Mus musculus [15] = experiment: In vivo activation of AMPK in C57BL/6J mouse assessed as increase in AMPK phosphorylation in liver at 10 mg/kg, po measured for 30 mins by Western blot analysis; format: functional, organism-based
Mus musculus [16] = experiment: In vivo activation of AMPK in C57BL/6J mouse assessed as increase ACC substrate level in liver at 10 mg/kg, po measured for 30 mins by Western blot analysis; format: functional, organism-based
Mus musculus [17] = experiment: Antidiabetic activity against po dosed db/db mouse model of type 2 diabetes assessed as improvement in glucose handling administered for 15 days and measured on day 13 by OGTT test; format: functional, organism-based; settings: dose 10-15 mg/kg, time 13.0 day
Mus musculus [18] = experiment: Antidiabetic activity against db/db mouse model of type 2 diabetes assessed as reduction in blood glucose AUC at 15 mg/kg, po administered for 15 days and measured on day 13 by OGTT test; format: functional, organism-based; settings: time 13.0 day
Mus musculus [19] = experiment: Antidiabetic activity against po dosed db/db mouse model of type 2 diabetes assessed as reduction in blood glucose level administered for 15 days by OGTT test; format: functional, organism-based; settings: dose 10-15 mg/kg, time 15.0 day
Mus musculus [20] = experiment: Antidiabetic activity against po dosed db/db mouse model of type 2 diabetes assessed as reduction in insulin level administered for 15 days by OGTT test; format: functional, organism-based; settings: dose 10-15 mg/kg, time 15.0 day

Sequence of hERG (KCNH2) (Q12809 whole entry): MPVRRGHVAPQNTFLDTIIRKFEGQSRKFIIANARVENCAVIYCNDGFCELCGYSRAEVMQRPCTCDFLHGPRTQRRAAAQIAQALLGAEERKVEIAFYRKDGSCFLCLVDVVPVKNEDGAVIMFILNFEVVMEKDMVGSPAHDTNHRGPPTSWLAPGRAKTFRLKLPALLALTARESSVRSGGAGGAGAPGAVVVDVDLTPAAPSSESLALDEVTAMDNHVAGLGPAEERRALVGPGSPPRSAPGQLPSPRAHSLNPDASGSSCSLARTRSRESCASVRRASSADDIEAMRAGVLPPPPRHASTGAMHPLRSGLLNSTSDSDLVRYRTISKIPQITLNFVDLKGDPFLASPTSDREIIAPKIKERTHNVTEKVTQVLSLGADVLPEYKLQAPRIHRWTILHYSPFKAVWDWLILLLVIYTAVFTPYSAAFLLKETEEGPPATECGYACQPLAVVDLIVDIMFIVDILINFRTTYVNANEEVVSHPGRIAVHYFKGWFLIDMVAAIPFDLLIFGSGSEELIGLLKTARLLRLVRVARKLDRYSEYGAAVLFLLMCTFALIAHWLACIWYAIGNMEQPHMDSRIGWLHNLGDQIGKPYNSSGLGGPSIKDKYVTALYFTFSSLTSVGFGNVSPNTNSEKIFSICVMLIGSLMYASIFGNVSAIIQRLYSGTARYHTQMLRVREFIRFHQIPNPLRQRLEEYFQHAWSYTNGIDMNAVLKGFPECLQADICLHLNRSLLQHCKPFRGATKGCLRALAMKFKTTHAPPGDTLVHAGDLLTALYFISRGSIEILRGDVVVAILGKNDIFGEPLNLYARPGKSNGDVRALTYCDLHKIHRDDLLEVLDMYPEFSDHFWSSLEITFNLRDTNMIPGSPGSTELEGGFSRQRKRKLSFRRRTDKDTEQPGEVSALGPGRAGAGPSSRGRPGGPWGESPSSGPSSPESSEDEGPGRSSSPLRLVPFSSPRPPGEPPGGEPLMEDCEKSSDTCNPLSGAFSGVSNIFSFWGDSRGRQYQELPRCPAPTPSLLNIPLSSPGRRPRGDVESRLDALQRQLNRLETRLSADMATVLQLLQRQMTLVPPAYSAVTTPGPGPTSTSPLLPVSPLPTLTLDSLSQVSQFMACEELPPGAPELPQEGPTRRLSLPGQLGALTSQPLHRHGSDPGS
T1 sequence (P08684 whole entry): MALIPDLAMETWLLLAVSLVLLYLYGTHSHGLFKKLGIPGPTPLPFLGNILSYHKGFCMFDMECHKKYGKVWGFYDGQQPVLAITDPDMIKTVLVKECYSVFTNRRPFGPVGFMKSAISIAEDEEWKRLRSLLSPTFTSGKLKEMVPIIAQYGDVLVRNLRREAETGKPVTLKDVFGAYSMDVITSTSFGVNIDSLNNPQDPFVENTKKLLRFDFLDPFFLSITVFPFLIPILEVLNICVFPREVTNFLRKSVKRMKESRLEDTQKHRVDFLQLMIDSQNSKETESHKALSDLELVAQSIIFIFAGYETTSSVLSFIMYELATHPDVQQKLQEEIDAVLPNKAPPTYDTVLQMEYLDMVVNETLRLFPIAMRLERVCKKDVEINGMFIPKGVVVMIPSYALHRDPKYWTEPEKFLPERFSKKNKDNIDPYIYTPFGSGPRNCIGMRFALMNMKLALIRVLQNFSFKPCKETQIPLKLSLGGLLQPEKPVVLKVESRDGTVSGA
Sequence of Voltage-gated inwardly rectifying potassium channel KCNH2 (Q12809 whole entry): as the sequence (Q12809 whole entry) above

SMILES	EC50 [2] [nM]	EC50 [3] [nM]	IC50 (HepG2) [nM]	IC50 (Cytochrome P450 3A4 [4]) [nM]	IC50 (Cytochrome P450 3A4 [5]) [nM]	clearance [6] [mL/min/kg]	inhibition at 10 µM (hERG (KCNH2)) [%]	half-life [8] [h]	half-life [9] [h]	further results
COc1ccc(C(=O)C2CCN(C(=O)c3ccc(C(=O)NC4CCN(Cc5ccc(C#N)cc5)CC4)cn3)CC2)cc1	31	137	2820	> 10000	> 10000	150				IC50 [1]: 4700 nM; pKa [7]: 7.4
COc1ccc(C(=O)C2CCN(C(=O)c3ccc(C(=O)N[C@H]4CCN(Cc5ccc(C#N)cc5)C[C@@H]4C)cn3)CC2)cc1	65	236	983			145				
COc1ccc(C(=O)C2CCN(C(=O)c3ccc(C(=O)N[C@@H]4CCN(Cc5ccc(C#N)cc5)C[C@@H]4C)cn3)CC2)cc1	22	82	941	10000	900		46.9	0.15	0.383	
COCCN(C(=O)c1ccc(C(=O)N2CCC(C(=O)c3ccc(OC)cc3)CC2)nc1)C1CCN(Cc2ccc(C#N)cc2)CC1	78	654	1470				26.5			
COc1ccc(C(=O)C2CCN(C(=O)c3cc(C)c(C(=O)NC4CCN(Cc5ccc(OC)c(F)c5)CC4)cn3)CC2)cc1	14	27	976			33	58.4	0.9	1.12	
COc1ccc(C(=O)C2CCN(C(=O)c3ccc(C(=O)N[C@H]4CCN(Cc5ccc(C#N)cc5)[C@H](C(F)(F)F)C4)cn3)CC2)cc1	464									
COc1ccc(C(=O)C2CCN(C(=O)c3cc(C(F)(F)F)c(C(=O)NC4CCN(Cc5ccc(C#N)cc5)CC4)cn3)CC2)cc1	10	28	456	> 10000	2800	35		0.733	1.48	
COc1ccc(C(=O)C2CCN(C(=O)c3ccc(C(=O)NC4CCN(Cc5ccc(C#N)cc5)CC4(F)F)cn3)CC2)cc1 (centres undefined)	28	50	256	> 10000	> 10000		65	2.48	1.23	pKa [7]: 2.5
COc1ccc(C(=O)C2CCN(C(=O)c3ccc(C(=O)N[C@H]4CCN(Cc5ccc(C#N)cc5)C[C@@H]4F)cn3)CC2)cc1 (relative stereo)	62	161	1170	> 10000	> 10000	17	69.2	1.47	1.9	pKa [7]: 4.9; IC50 (A549): > 20000 nM; IC50 (NCI-H1299): > 20000 nM; half-life [10]: 3.1 h; Vdss [11]: 2.2 L/kg; AUC at 10 h [12]: 2350 ng·h/mL; bioavailability [13]: 55%; concentration at 0.5 h [14]: 638 ng/mL; Activity (Mus musculus [15]): Active; Activity (Mus musculus [16]): Active; Activity (Mus musculus [17]): Dose-Dependent Effect; Activity (Mus musculus [18]): Active; Activity (Mus musculus [19]): Dose-Dependent Effect; Activity (Mus musculus [20]): Dose-Dependent Effect
COc1ccc(C(=O)C2CCN(C(=O)c3ccc(C(=O)N[C@@H]4CCN(Cc5ccc(C#N)cc5)C[C@@H]4F)cn3)CC2)cc1	47	193	800	> 10000	> 10000	33	67.4	4.95	8.23	pKa [7]: 4.9
COc1ccc(CN2CCC(NC(=O)c3cnc(C(=O)N4CCC(C(=O)c5ccc(OC)cc5)CC4)cc3C)CC2)cc1	25	84	3370			40	62.5	0.917	4.72	
N#Cc1ccc(CN2CC[C@H](NC(=O)c3ccc(C(=O)N4CCC(C(=O)c5ccc(-n6cccn6)cc5)CC4)nc3)[C@@H](F)C2)cc1	29	87	887			19	98.4	1.75		Stability ([9]; microsomes): Stable
COc1ccc(C(=O)C2CCN(C(=O)c3ccc(C(=O)NC4CCN(Cc5ccc(C#N)cc5)CC4(C)C)cn3)CC2)cc1 (centres undefined)	32	598	390			40				
N#Cc1ccc(CN2CC[C@H](NC(=O)c3ccc(C(=O)N4CCC(C(=O)c5ccc(N6CCOCC6)cc5)CC4)nc3)[C@@H](F)C2)cc1	70	217	2690					1.22	2.63	
COc1ccc(C(=O)C2CCN(C(=O)c3cc(F)c(C(=O)NC4CCN(Cc5ccc(C#N)cc5)CC4)cn3)CC2)cc1	1	9	31							
COc1ccc(C(=O)C2CCN(C(=O)c3ccc(C(=O)N(C)C4CCN(Cc5ccc(C#N)cc5)CC4)cn3)CC2)cc1	21		28			74				
COc1ccc(C(=O)C2CCN(C(=O)c3cc(C)c(C(=O)NC4CCN(Cc5ccc(C#N)cc5)CC4)cn3)CC2)cc1	22	110	1460	> 10000	> 10000	38	59.8	0.7	1.72	
COc1ccc(C(=O)C2CCN(C(=O)c3ccc(C(=O)N[C@@H]4CCN(Cc5ccc(C#N)cc5)C[C@@H]4C(F)(F)F)cn3)CC2)cc1	17	143	466			62				
